Counter-ions that a name gives are not always drawn.
`Cc1nc2ccccc2n1-c1ccc(C(=O)N(C)[C@@H]2CCN(CC3CCCCC3)C2)cc1` (as salt: hydrochloride) gave a melting point of 184 to 185 °C. Molecule `Cc1nc2ccccc2n1-c1ccc(C(=O)N(C)[C@@H]2CCN(C(C)C)C2)cc1` (as salt: hydrochloride) has a melting point of 181 to 183 °C. With `Cc1nc2ccccc2n1-c1ccc(C(=O)N(C)[C@@H]2CCN(C3CCC3)C2)cc1` (as salt: hydrochloride) the melting point was 175 to 176 °C. Work on `Cc1nc2ccccc2n1-c1ccc(C(=O)N(C)[C@@H]2CCN(C3CCCC3)C2)cc1` (as salt: hydrochloride) yielded a melting point of 186 to 187 °C. `Cc1nc2ccccc2n1-c1ccc(C(=O)N(C)[C@@H]2CCN(C3CCOCC3)C2)cc1` (as salt: hydrochloride) gave a melting point of 200 to 202 °C. `Cc1nc2ccccc2n1-c1ccc(C(=O)N(C)[C@@H]2CCN(C3CC4CCC3C4)C2)cc1` (some centres unmarked) (as salt: hydrochloride) showed a melting point of 205 to 207 °C. With `Cc1nc2ccccc2n1-c1ccc(C(=O)N(C)[C@@H]2CCN(C3C4CC5CC(C4)CC3C5)C2)cc1` (some centres unmarked) (as salt: hydrochloride) the melting point was 257 to 259 °C. `Cc1nc2ccccc2n1-c1ccc(C(=O)N(C)[C@H]2CCN(C(C)C)C2)cc1` (as salt: hydrochloride) gave a melting point of 190 to 192 °C. In the case of `Cc1nc2ccccc2n1-c1ccc(C(=O)N(C)[C@H]2CCN(C3CCC3)C2)cc1` (as salt: hydrochloride), the melting point was 184 to 185 °C. With `Cc1nc2ccccc2n1-c1ccc(C(=O)N(C)[C@H]2CCN(C3CCCC3)C2)cc1` (as salt: hydrochloride) the melting point was 165 to 166 °C. `Cc1nc2ccccc2n1-c1ccc(C(=O)N(C)[C@H]2CCN(C3CCCCC3)C2)cc1` (as salt: hydrochloride) gave a melting point of 170 to 172 °C. Work on `Cc1nc2ccccc2n1-c1ccc(C(=O)N(C)[C@H]2CCN(C3CCC(C)C3)C2)cc1` (some centres unmarked) (as salt: hydrochloride) yielded a melting point of 173 to 175 °C. In the case of `Cc1nc2ccccc2n1-c1ccc(C(=O)N(C)[C@H]2CCN(C3CC[C@@H](C)C3)C2)cc1` (some centres unmarked) (as salt: hydrochloride), the melting point was 175 to 177 °C. `Cc1nc2ccccc2n1-c1ccc(C(=O)N(C)[C@H]2CCN(C3CCCCC3C)C2)cc1` (some centres unmarked) (as salt: hydrochloride) showed a melting point of 195 to 196 °C. Work on `Cc1nc2ccccc2n1-c1ccc(C(=O)N(C)[C@H]2CCN(C3CCC[C@@H](C)C3)C2)cc1` (some centres unmarked) (as salt: hydrochloride) yielded a melting point of 187 to 189 °C. With `Cc1nc2ccccc2n1-c1ccc(C(=O)N(C)[C@H]2CCN(C3CCCC(C)C3)C2)cc1` (some centres unmarked) (as salt: hydrochloride) the melting point was 181 to 183 °C. For `Cc1nc2ccccc2n1-c1ccc(C(=O)N(C)[C@H]2CCN(CC3CC3)C2)cc1` (as salt: hydrochloride), the melting point was 179 to 180 °C. `Cc1nc2ccccc2n1-c1ccc(C(=O)N(C)[C@@H]2CCN(CC(C)C)C2)cc1` (as salt: hydrochloride) gave a melting point of 189 to 190 °C. `Cc1nc2ccccc2n1-c1ccc(C(=O)N(C)[C@@H]2CCN(C3CCCCC3)C2)cc1` (as salt: hydrochloride) gave a melting point of 193 to 194 °C. With `Cc1nc2ccccc2n1-c1ccc(C(=O)N(C)[C@@H]2CCN(CC3CC3)C2)cc1` (as salt: hydrochloride) the melting point was 185 to 186 °C. With `Cc1nc2ccccc2n1-c1ccc(C(=O)N(C)[C@@H]2CCN(CC3CCCC3)C2)cc1` (as salt: hydrochloride) the melting point was 190 to 192 °C. Molecule `Cc1nc2ccccc2n1-c1ccc(C(=O)N(C)C2CCNCC2)cc1` (as salt: hydrochloride) [Example 30, N-Methyl-4-(2-methylbenzimidazol-1-yl)-N-piperidin-4-yl-benzamide Hydrochloride] has a melting point of 219 to 221 °C. `Cc1nc2ccccc2n1-c1ccc(C(=O)N(C)C2CCN(C(C)C)CC2)cc1` (as salt: hydrochloride) [Example 31, N-(1-isopropylpiperidin-4-yl)-N-methyl-4-(2-methyl-1H-benzimidazol-1-yl)benzamide] gave a melting point of 282 to 284 °C. For `Cc1nc2ccccc2n1-c1ccc(C(=O)N(C)C2CCN(C3CCCC3)CC2)cc1` (as salt: hydrochloride) [Example 32, N-(1-cyclopentylpiperidin-4-yl)-N-methyl-4-(2-methyl-1H-benzimidazol-1-yl)benzamide], the melting point was 270 °C (dec.). With `Cc1nc2ccccc2n1-c1ccc(C(=O)N(C)C2CCN(C3CCCCC3)CC2)cc1` (as salt: hydrochloride) [Example 33, N-(1-cyclohexylpiperidin-4-yl)-N-methyl-4-(2-methyl-1H-benzimidazol-1-yl)benzamide] the melting point was 285 °C (dec.). With `Cc1nc2ccccc2n1-c1ccc(C(=O)N(C)C2CCN(C3CCC3)CC2)cc1` (as salt: hydrochloride) [Example 34, N-(1-cyclobutylpiperidin-4-yl)-N-methyl-4-(2-methyl-1H-benzimidazol-1-yl)benzamide] the melting point was 280 °C (dec.). `Cc1nc2ccccc2n1Cc1ccc(C(=O)N(C)[C@@H]2CCNC2)cc1` (as salt: hydrochloride) [Example 35, N-Methyl-4-[(2-methylbenzimidazol-1-yl)methyl]-N—(R)-pyrrolidin-3-yl-benzamide Hydrochloride] showed a melting point of 126 to 128 °C. `CN(C(=O)c1ccc(Cn2cnc3ccccc32)cc1)[C@@H]1CCNC1` (as salt: hydrochloride) [Example 36, (R)-4-((1H-benzo[d]imidazol-1-yl)methyl)-N-methyl-N-(pyrrolidin-3-yl)benzamide Hydrochloride] showed a melting point of 150 to 152 °C. In the case of `Cc1nc2ccccc2n1Cc1ccc(C(=O)N(C)[C@@H]2CCN(C3CCCCC3)C2)cc1` (as salt: hydrochloride) [Example 40, N-[(3R)-1-cyclohexylpyrrolidin-3-yl]-N-methyl-4-[(2-methyl-1H-benzimidazol-1-yl)methyl]benzamide], the melting point was 188 to 190 °C. `Cc1nc2ccccc2n1Cc1ccc(C(=O)N(C)C2CCN(C(C)C)CC2)cc1` (as salt: hydrochloride) [Example 46, N-(1-isopropylpiperidin-4-yl)-N-methyl-4-[(2-methyl-1H-benzimidazol-1-yl)methyl]benzamide] gave a melting point of 200 to 202 °C. In the case of `Cc1nc2ccccc2n1Cc1ccc(C(=O)N(C)C2CCN(C3CCC3)CC2)cc1` (as salt: hydrochloride) [Example 47, N-(1-cyclobutylpiperidin-4-yl)-N-methyl-4-[(2-methyl-1H-benzimidazol-1-yl)methyl]benzamide], the melting point was 280 °C (dec.). For `Cc1nc2ccccc2n1Cc1ccc(C(=O)N(C)C2CCN(C3CCCC3)CC2)cc1` (as salt: hydrochloride) [Example 48, N-(1-cyclopentylpiperidin-4-yl)-N-methyl-4-[(2-methyl-1H-benzimidazol-1-yl)methyl]benzamide], the melting point was 280 °C (dec.). Molecule `CC(C)N1CCC(N(C)C(=O)c2ccc(Cn3cnc4ccccc43)cc2)CC1` (as salt: hydrochloride) [Example 49, 4-(1H-benzimidazol-1-ylmethyl)-N-(1-isopropylpiperidin-4-yl)-N-methylbenzamide] has a melting point of 185 to 187 °C. `CN(C(=O)c1ccc(Cn2cnc3ccccc32)cc1)C1CCN(C2CCC2)CC1` (as salt: hydrochloride) [Example 50, 4-(1H-benzimidazol-1-ylmethyl)-N-(1-cyclobutylpiperidin-4-yl)-N-methylbenzamide] showed a melting point of 238 to 240 °C. With `CN(C(=O)c1ccc(Cn2cnc3ccccc32)cc1)C1CCN(C2CCCC2)CC1` (as salt: hydrochloride) [Example 51, 4-(1H-benzimidazol-1-ylmethyl)-N-(1-cyclopentylpiperidin-4-yl)-N-methylbenzamide] the melting point was 248 to 250 °C. Molecule `Cc1nc2cc(C#N)ccc2n1-c1ccc(C(=O)N(C)[C@@H]2CCN(C(C)C)C2)cc1` (as salt: hydrochloride) [Example 54, 4-(5-cyano-2-methyl-1H-benzimidazol-1-yl)-N-[(3R)-1-isopropylpyrrolidin-3-yl]-N-methylbenzamide] has a melting point of 230 to 232 °C. `Cc1nc2cc(C#N)ccc2n1-c1ccc(C(=O)N(C)[C@@H]2CCN(C3CCC3)C2)cc1` (as salt: hydrochloride) [Example 55, 4-(5-cyano-2-methyl-1H-benzimidazol-1-yl)-N-[(3R)-1-cyclobutylpyrrolidin-3-yl]-N-methylbenzamide] showed a melting point of 240 to 242 °C. `Cc1nc2cc(C#N)ccc2n1-c1ccc(C(=O)N(C)[C@@H]2CCN(C3CCCC3)C2)cc1` (as salt: hydrochloride) [Example 56, 4-(5-cyano-2-methyl-1H-benzimidazol-1-yl)-N-[(3R)-1-cyclopentylpyrrolidin-3-yl]-N-methylbenzamide] gave a melting point of 185 to 187 °C. With `CC(C)N1CC[C@@H](N(C)C(=O)c2ccc(-n3cc4ccccc4n3)cc2)C1` (as salt: hydrochloride) [Example 61, 4-(2H-indazol-2-yl)-N-[(3R)-1-isopropylpyrrolidin-3-yl]-N-methylbenzamide] the melting point was 227 to 228 °C. For `CN(C(=O)c1ccc(-n2cc3ccccc3n2)cc1)[C@@H]1CCN(C2CCC2)C1` (as salt: hydrochloride) [Example 62, N-[(3R)-1-cyclobutylpyrrolidin-3-yl]-4-(2H-indazol-2-yl)-N-methylbenzamide], the melting point was 163 to 165 °C. For `CN(C(=O)c1ccc(-n2cc3ccccc3n2)cc1)[C@@H]1CCN(C2CCCC2)C1` (as salt: hydrochloride) [Example 63, N-[(3R)-1-cyclopentylpyrrolidin-3-yl]-4-(2H-indazol-2-yl)-N-methylbenzamide], the melting point was 216 to 218 °C. `CC(C)N1CC[C@@H](N(C)C(=O)c2ccc(-n3ncc4ccccc43)cc2)C1` (as salt: hydrochloride) [Example 64, 4-(1H-indazol-1-yl)-N-[(3R)-1-isopropylpyrrolidin-3-yl]-N-methylbenzamide] showed a melting point of 175 to 177 °C. For `CN(C(=O)c1ccc(-n2ncc3ccccc32)cc1)[C@@H]1CCN(C2CCC2)C1` (as salt: hydrochloride) [Example 65, N-[(3R)-1-cyclobutylpyrrolidin-3-yl]-4-(1H-indazol-1-yl)-N-methylbenzamide], the melting point was 163 to 165 °C. In the case of `CN(C(=O)c1ccc(-n2ncc3ccccc32)cc1)[C@@H]1CCN(C2CCCC2)C1` (as salt: hydrochloride) [Example 66, N-[(3R)-1-cyclopentylpyrrolidin-3-yl]-4-(1H-indazol-1-yl)-N-methylbenzamide], the melting point was 151 to 152 °C.

Source: patent publication US20080293771A1, “AZACYCLYLBENZAMIDE DERIVATIVES AS HISTAMINE-3 ANTAGONISTS” (Wyeth, priority 2007, published 2008)
